The test system of this assay is P1534 leukemia ip, CD2F1 mice, survival T/C. Put plainly: NCI In Vivo Anticancer Drug Screen. Data for tumor model P1534 Leukemia (intraperitoneal) in CD2F1 (CDF1) mice. The settings on record: higher = longer survival. Here is the method: The antitumor activity of compounds was measured in mice bearing transplantable tumors. Survival or tumor size were measured and the results are expressed as the measurement made in the treated group (T) divided by the measurement made in the vehicle treated control group (C). The tumor model used in this assay is P1534 Leukemia (intraperitoneal) in CD2F1 (CDF1) mice

[1] abbreviates: endpoint: mean survival time, dose: 100.0 mg/kg/injection, schedule: Q01DX010 (ip), vehicle: water.
The mark [2] stands for this setting: endpoint: mean survival time, dose: 150.0 mg/kg/injection, schedule: Q01DX010 (ip), vehicle: water.
The mark [3] stands for this setting: endpoint: mean survival time, dose: 200.0 mg/kg/injection, schedule: Q01DX010 (ip), vehicle: water.
Where [4] appears, read: endpoint: mean survival time, dose: 300.0 mg/kg/injection, schedule: Q01DX010 (ip), vehicle: saline.
[5] abbreviates: endpoint: mean survival time, dose: 450.0 mg/kg/injection, schedule: Q01DX010 (ip), vehicle: saline.
[6] abbreviates: endpoint: mean survival time, dose: 675.0 mg/kg/injection, schedule: Q01DX010 (ip), vehicle: saline.
Where [7] appears, read: endpoint: mean survival time, dose: 8.0 mg/kg/injection, schedule: Q01DX010 (ip), vehicle: saline.
Setting [8] is: endpoint: mean survival time, dose: 25.0 mg/kg/injection, schedule: Q01DX010 (ip), vehicle: saline.
Where [9] appears, read: endpoint: mean survival time, dose: 50.0 mg/kg/injection, schedule: Q01DX010 (ip), vehicle: saline.
[10] abbreviates: endpoint: mean survival time, dose: 100.0 mg/kg/injection, schedule: Q01DX010 (ip), vehicle: saline.
[11] abbreviates: endpoint: mean survival time, dose: 200.0 mg/kg/injection, schedule: Q01DX010 (ip), vehicle: saline.
Where [12] appears, read: endpoint: mean survival time, dose: 400.0 mg/kg/injection, schedule: Q01DX010 (ip), vehicle: saline.
[13] abbreviates: endpoint: mean survival time, dose: 12.5 mg/kg/injection, schedule: Q01DX010 (ip), vehicle: saline.
Setting [14] is: endpoint: mean survival time, dose: 10.0 mg/kg/injection, schedule: Q01DX010 (ip), vehicle: saline.

Values joined by “and” are separate entries in the source; they are usually repeats but may differ in a detail not shown here. Equal values may be shown once. Inconclusive results and toxic doses are left out.

On to `Cc1[nH]ncc1Br`, for which the T/C by setting is: under setting [1], 95 % of control; under setting [2], 98 % of control.

`Cc1cc(C)n(C(N)=O)n1`: the T/C under setting [2] is 96 % of control and the T/C under setting [3] is 111 % of control.

Turning to `COCCOC`, the T/C under setting [4] is 100 % of control, the T/C under setting [5] is 107 % of control and the T/C under setting [6] was 103 % of control.

With `CN(C)c1ccc(/C=C\c2ccnc3ccccc23)cc1`, the T/C under setting [7] is 115 % of control; the T/C (endpoint: mean survival time, dose: 12.0 mg/kg/injection, schedule: Q01DX010 (ip), vehicle: saline) was 115 % of control; the T/C (endpoint: mean survival time, dose: 18.0 mg/kg/injection, schedule: Q01DX010 (ip), vehicle: saline) is 103 % of control and 100 % of control; the T/C (endpoint: mean survival time, dose: 27.0 mg/kg/injection, schedule: Q01DX010 (ip), vehicle: saline) was 123 % of control.

With `CCCCCCCCCCCCCCCCC(C(=O)O)C(O)(CC(=O)O)C(=O)O` (centres undefined), the T/C under setting [8] was 88 % of control.

Turning to `CC(=O)NCCCCCCCCCCNC(C)=O`, the T/C was 100 % of control under setting [9], 100 % of control under setting [10], 92 % of control under setting [11] and 96 % of control under setting [12].

Consider `CC(CCc1ccc(OC(=O)c2ccccc2)cc1)OC(=O)c1ccccc1` (centres undefined), for which the T/C is, setting by setting: under setting [9], 96 % of control; under setting [10], 89 % of control; under setting [11], 86 % of control; under setting [12], 89 % of control.

Turning to `Nc1nc(=S)c2ncn(C3OC(CO)C(O)C3O)c2[nH]1` (centres undefined), the T/C runs as follows: (endpoint: mean survival time, dose: 0.31 mg/kg/injection, schedule: Q01DX010 (ip), vehicle: saline) 103 % of control; (endpoint: mean survival time, dose: 0.63 mg/kg/injection, schedule: Q01DX010 (ip), vehicle: saline) 103 % of control; (endpoint: mean survival time, dose: 1.25 mg/kg/injection, schedule: Q01DX010 (ip), vehicle: saline) 106 % of control.

Turning to `CC(=O)OC(C)(C)/C=C/C(=O)[C@](C)(O)[C@H]1[C@H](O)C[C@@]2(C)[C@@H]3CC=C4[C@@H](CC[C@H](O)C4(C)C)[C@]3(CO)C(=O)C[C@]12C`, the T/C by setting is: (endpoint: mean survival time, dose: 0.16 mg/kg/injection, schedule: Q01DX010 (ip), vehicle: saline) 103 % of control; (endpoint: mean survival time, dose: 0.25 mg/kg/injection, schedule: Q01DX010 (ip), vehicle: saline) 100 % of control; (endpoint: mean survival time, dose: 0.38 mg/kg/injection, schedule: Q01DX010 (ip), vehicle: saline) 103 % of control; (endpoint: mean survival time, dose: 0.57 mg/kg/injection, schedule: Q01DX010 (ip), vehicle: saline) 103 % of control.

Consider `CCCNc1ncnc2[nH]ncc12`, for which the T/C (endpoint: mean survival time, dose: 3.13 mg/kg/injection, schedule: Q01DX010 (ip), vehicle: saline) was 100 % of control; the T/C (endpoint: mean survival time, dose: 6.25 mg/kg/injection, schedule: Q01DX010 (ip), vehicle: saline) is 88 % of control and 100 % of control; the T/C under setting [13] was 111 % of control and 100 % of control; the T/C under setting [8] is 94 % of control and 100 % of control.

For the molecule `Nc1nc(N)c2nc(CNc3ccc(C(=O)NC(CCC(=O)O)C(=O)O)cc3)cnc2n1` (centres undefined), the T/C runs as follows: (endpoint: mean survival time, dose: 25.0 micrograms/kg/injection, schedule: Q01DX010 (ip), vehicle: other) 109 % of control; (endpoint: mean survival time, dose: 50.0 micrograms/kg/injection, schedule: Q01DX010 (ip), vehicle: other) 113 % of control and 122 % of control; (endpoint: mean survival time, dose: 100.0 micrograms/kg/injection, schedule: Q01DX010 (ip), vehicle: other) 159 % of control; (endpoint: mean survival time, dose: 200.0 micrograms/kg/injection, schedule: Q01DX010 (ip), vehicle: other) 95 % of control and 100 % of control; (endpoint: median survival time, dose: 0.05 mg/kg/injection, schedule: Q01DX009 (ip), vehicle: sodium bicarbonate) 164 % of control; (endpoint: median survival time, dose: 0.1 mg/kg/injection, schedule: Q01DX009 (ip), vehicle: sodium bicarbonate) 93 % of control.

In the case of `CC1CCOS(=O)O1` (centres undefined), the T/C is, setting by setting: under setting [14], 103 % of control; (endpoint: mean survival time, dose: 20.0 mg/kg/injection, schedule: Q01DX010 (ip), vehicle: saline) 100 % of control; (endpoint: mean survival time, dose: 40.0 mg/kg/injection, schedule: Q01DX010 (ip), vehicle: saline) 100 % of control.

Regarding `CN(C)CC(=O)NCCCCCCCCCCNC(=O)CN(C)C`, the T/C was 100 % of control under setting [10], 100 % of control under setting [11] and 107 % of control under setting [12].

Turning to `O=C(O)CCCc1ccc(N(CCCl)CCCl)cc1`, the T/C runs as follows: (endpoint: mean survival time, dose: 6.25 mg/kg/injection, schedule: Q01DX010 (ip), vehicle: other) 114 % of control; (endpoint: mean survival time, dose: 25.0 mg/kg/injection, schedule: Q01DX010 (ip), vehicle: other) 103 % of control.

For `O=c1[nH]cnc2ccccc12`, the T/C under setting [8] is 107 % of control, the T/C under setting [9] was 100 % of control, the T/C under setting [10] is 103 % of control and the T/C under setting [11] is 114 % of control.

As to `O=C(CCCNC(=O)OCc1ccccc1)NCCCCCCCCCCNC(=O)CCCNC(=O)OCc1ccccc1`, the T/C is 89 % of control under setting [9] and 89 % of control under setting [10].

In the case of `O=C(CNC(=O)OCc1ccccc1)NCCCCCCNCCCCCCNC(=O)CNC(=O)OCc1ccccc1`, the T/C reads like this: under setting [8], 100 % of control; under setting [9], 107 % of control; under setting [10], 103 % of control; under setting [11], 100 % of control.

For `COc1cc(-c2ccc(Nc3ccccc3C(=O)O)c(OC)c2)ccc1Nc1ccccc1C(=O)O`, the T/C reads like this: under setting [13], 107 % of control; under setting [8], 114 % of control and 117 % of control; under setting [9], 117 % of control.

With `CC(=O)OCC1OC(n2ncc(=O)[nH]c2=O)C(OC(C)=O)C1OC(C)=O` (centres undefined), the T/C under setting [4] is 89 % of control, the T/C under setting [5] was 96 % of control and the T/C under setting [6] is 100 % of control.

On to `CCn1cnc2c(=S)nc[nH]c21`, for which the T/C (endpoint: mean survival time, dose: 31.3 mg/kg/injection, schedule: Q01DX010 (ip), vehicle: saline) was 114 % of control.

In the case of `CO[C@@H]1[C@@H](OC2OC(C)C(OC3CC(C)(O)C(OC(=O)CC(C)C)C(C)O3)C(N(C)C)C2O)[C@@H](CC=O)C[C@@H](C)C(=O)/C=C/C2O[C@H]2C[C@@H](C)OC(=O)C[C@H]1OC(C)=O` (some centres undefined), the T/C is, setting by setting: (endpoint: mean survival time, dose: 50.0 mg/kg/injection, schedule: Q#A X020 (ip), vehicle: water) 96 % of control; under setting [1], 92 % of control; (endpoint: mean survival time, dose: 100.0 mg/kg/injection, schedule: Q#A X020 (ip), vehicle: water) 107 % of control and 109 % of control; (endpoint: mean survival time, dose: 125.0 mg/kg/injection, schedule: Q#A X020 (ip), vehicle: water) 113 % of control; (endpoint: mean survival time, dose: 150.0 mg/kg/injection, schedule: Q#A X020 (ip), vehicle: water) 115 % of control; (endpoint: mean survival time, dose: 175.0 mg/kg/injection, schedule: Q#A X020 (ip), vehicle: water) 116 % of control. For the same molecule, the T/C is 110 % of control under setting [3]; 121 % of control (endpoint: mean survival time, dose: 250.0 mg/kg/injection, schedule: Q01DX010 (ip), vehicle: water); 104 % of control (endpoint: mean survival time, dose: 300.0 mg/kg/injection, schedule: Q01DX010 (ip), vehicle: water); 119 % of control (endpoint: mean survival time, dose: 1000.0 mg/kg/injection, schedule: Q01DX010 (oral), vehicle: water).

`Cc1cc(O)c2cc3c(O)c(O)ccc3cc2c1`: the T/C reads like this: (endpoint: mean survival time, dose: 1.0 mg/kg/injection, schedule: Q01DX010 (ip), vehicle: saline) 100 % of control; (endpoint: mean survival time, dose: 2.0 mg/kg/injection, schedule: Q01DX010 (ip), vehicle: saline) 103 % of control.

As to `O=C(Nc1ccc(C2=NCCN2)cc1)c1cccc(C(=O)Nc2ccc(C3=NCCN3)cc2)c1`, the T/C was 109 % of control under setting [7]; 118 % of control (endpoint: mean survival time, dose: 16.0 mg/kg/injection, schedule: Q01DX010 (ip), vehicle: saline); 154 % of control (endpoint: mean survival time, dose: 32.0 mg/kg/injection, schedule: Q01DX010 (ip), vehicle: saline); 163 % of control and 168 % of control (endpoint: mean survival time, dose: 64.0 mg/kg/injection, schedule: Q01DX010 (ip), vehicle: saline).

For the molecule `O=C(NCCCCC(NC(=O)OCc1ccccc1)C(=O)NCCCNCCCCNCCCNC(=O)C(CCCCNC(=O)OCc1ccccc1)NC(=O)OCc1ccccc1)OCc1ccccc1` (centres undefined), the T/C reads like this: (endpoint: mean survival time, dose: 2.5 mg/kg/injection, schedule: Q01DX010 (ip), vehicle: saline) 100 % of control; (endpoint: mean survival time, dose: 5.0 mg/kg/injection, schedule: Q01DX010 (ip), vehicle: saline) 100 % of control; under setting [14], 100 % of control.

Turning to `O=P1(N(CCCl)CCCl)NCCCO1` (centres undefined), the T/C reads like this: (endpoint: mean survival time, dose: 2.9 mg/kg/injection, schedule: Q01DX010 (ip), vehicle: saline) 98 % of control; (endpoint: mean survival time, dose: 5.7 mg/kg/injection, schedule: Q01DX010 (ip), vehicle: saline) 106 % of control; (endpoint: mean survival time, dose: 11.3 mg/kg/injection, schedule: Q01DX010 (ip), vehicle: saline) 111 % of control.

Values taken from PubChem BioAssay AID316 (DTP/NCI, 2004).
